Common to all, as to assay type: cell-based
In one experiment the test system is MV-4-11 cells. The experiment can be described thus: Cell viability assay (CellTiter-Glo), MV-4-11 proliferation. The settings on record: Homo sapiens, MV4-11, 72 h, 3 days; for inhibition at 1 µM: compound at 1 μM; for inhibition at 10 µM: compound at 10 μM. The procedure:
(§1) Molm-13 and MV-4-11 cells were cultivated in RPMI-1640 (10% FBS/1% pen-strep) and were plated in white walled 96-well plates at 20,000 cells/well.
(§2) Cells were treated with compound at the indicated concentration or DMSO (control) and the cultures were incubated for 3 days at 37° C. and 5% CO2. Following the incubation period, 100 μL of CellTiterGlow (CTG) reagent (CellTiter-Glo® Luminescent Cell Viability Assay, Promega (Madison, Wis.)) was added to each well. Following a 10 min incubation with shaking, luminescence was measured using a Victor Wallac Luminometer.
For orientation: ATP-based viability assays read luminescence as a measure of living cells.

The test system of another experiment is TNFα. The experiment can be described thus: PBMC assay, LPS-induced TNFα (Meso Scale). The settings on record: Homo sapiens, PBMCs, 100 ng/mL LPS 18-24 hrs; for inhibition at 1 µM: compound at 1 μM; for inhibition at 10 µM: compound at 10 μM; for inhibition at 0.1 µM: compound at 0.1 μM. The protocol:
FIG. 3 represents the activity against TNFα in peripheral blood mononuclear cells (PBMCs), plated in 96 well plates and pretreated with compound for 1 hour and then induced with 100 ng/mL LPS for 18-24 hrs. Cytokines in the media were measured according to MesoScale protocol. The negative control wells were treated with DMSO. Compound activity is measured as a percentage of LPS-induced activity.
(§3) Frozen primary blood mononuclear cells (PBMCs) were purchased from AllCells. Cells were quick thawed, washed once with RPMI-1640/10% FBS.
(§4) 1% Penicillin/1% Streptomycin and plated in 96 well plates at 200,000 cells per well. Cells were pretreated with DMSO only, or Compound 1 for 1 hour and then induced with 100 ng/mL lipopolysaccharide (LPS) for 18-24 hrs. The supernatant was analyzed for IL-1 beta, IL-6, and TNFα, using Meso Scale assay according to manufacturer's protocol. The negative control wells were treated with DMSO.
(§5) Compound activity was measured as fold difference from the DMSO control. IL-1β activity is shown in FIG. 1; IL-6 activity is shown in FIG. 2; TNFα activity is shown in FIG. 3; and IL-2 activity is shown in FIG. 4. Additional data for compounds (shown as percent inhibition) at 10 μM is shown in Table 1; at 1 μM in Table 2; and at 0.1 μM in Table 3.

For another experiment, the system named is IL-6. The experiment can be described thus: PBMC assay, LPS-induced IL-6 (Meso Scale). The following applies: Homo sapiens, PBMCs, 100 ng/mL LPS 18-24 hrs; for inhibition at 1 µM: compound at 1 μM; for inhibition at 10 µM: compound at 10 μM; for inhibition at 0.1 µM: compound at 0.1 μM. The protocol: FIG. 2 represents the activity against IL-6 in peripheral blood mononuclear cells (PBMCs), plated in 96 well plates and pretreated with compound for 1 hour and then induced with 100 ng/mL LPS for 18-24 hrs. Cytokines were measured according to MesoScale protocol. Negative control wells were treated with DMSO. Compound activity was measured as a percentage of LPS-induced activity.
as §3, §4, §5

The next experiment deals with IL-2. The experiment can be described thus: Anti-CD3-induced IL-2 secretion in PBMCs (Mesoscale). The following applies: Homo sapiens, PBMC, anti-CD3 stimulated PBMCs, 24 hr, vs DMSO control, read-out: IL-2 Fold Change; for fold induction at 10 µM: compound 10 μM; for fold induction at 1 µM: compound at 1 μM; for fold induction at 0.1 µM: compound at 0.1 μM. The protocol:
FIG. 4 represents Anti-CD3-induced IL-2 secretion in PBMCs. 1 μg/mL anti-CD3 (OKT-3) antibody in PBS coated onto 96-well plates overnight at 4° C. Approximately, 550,000 PBMCs were added to each well, followed by addition of DMSO only (control) or Compound 1. Induction was measured after 24 hrs as fold difference from the DMSO stimulated control.
as §3
For the IL-2 analysis, 96 well plates were precoated with 1 μg/mL anti-human CD3 antibody (OKT3, eBioscience Inc.). After washing with PBS, Compound 1 was added (50 μL/well) followed by PBMCs diluted at 3-4 million cells/mL (150 μL/well). Plates were incubated for 24 hr and the supernatants collected for Mesoscale IL-2 analysis.
as §5

The subject of a further experiment is IL-1β. Put plainly: PBMC assay, LPS-induced IL-1β (Meso Scale). The settings on record: Homo sapiens, PBMCs, 100 ng/mL LPS 18-24 hrs; for inhibition at 1 µM: compound at 1 μM; for inhibition at 10 µM: compound at 10 μM; for inhibition at 0.1 µM: compound at 0.1 μM. The protocol:
FIG. 1 represents the activity against IL-1-beta in peripheral blood mononuclear cells (PBMCs), plated in 96 well plates and pretreated with compound for 1 hour and then induced with 100 ng/mL LPS for 18-24 hrs. Cytokines in the media were measured according to MesoScale protocol. Negative control wells were treated with DMSO. Compound activity is measured as a percentage of LPS-induced activity.
as §3, §4, §5

A further experiment relates to Molm-13 cells. The experiment can be described thus: Cell viability assay (CellTiter-Glo), Molm-13 proliferation. The settings on record: Homo sapiens, MOLM-13, 72 h; compound at 10 μM; 3 days. The protocol: as §1, §2

Data on 11 compounds can be found in patent publication US10927104B2, “Ether compounds and uses thereof” (BioTheryX, Inc., priority 2017, dated 2021).

In general, inhibition refers to the relative decrease from the control value, in per cent.

`Cc1cnc(Nc2ccc(OCCCNCC(=O)NCc3ccc(COc4cccc5c4CN(C4CCC(=O)NC4=O)C5=O)cc3)cc2)nc1Nc1cccc(S(=O)(=O)NC(C)(C)C)c1` (stereo not drawn) [Compound 17]: the inhibition at 1 µM stood at 31% with MV-4-11 cells, 75% in the experiment on TNFα, 35% in the experiment with IL-6 and 75% with IL-1β. Besides, the inhibition at 10 µM with MV-4-11 cells worked out at 98%; in the experiment with TNFα, 100%; in the experiment with IL-6 it was 100%; in the experiment with IL-1β, 100%. Moreover, the fold induction at 10 µM in the experiment on IL-2 amounted to 0.1. The fold induction at 1 µM in the experiment with IL-2 worked out at 1.5.

On to `Cc1cnc(Nc2ccc(OCCCNCC(=O)NCc3ccc(COc4cc(F)cc5c4CN([C@H]4CCC(=O)NC4=O)C5=O)cc3)cc2)nc1Nc1cccc(S(=O)(=O)NC(C)(C)C)c1` [Compound 25], for which, in the experiment on MV-4-11 cells, the inhibition at 1 µM was found to be 54% and the inhibition at 10 µM is 90%. Also, in the experiment with TNFα, the inhibition at 0.1 µM was found to be 13% and 1 µM produced 25% inhibition. In the experiment on IL-6, this compound gave an inhibition at 0.1 µM of 3% and an inhibition at 1 µM of 32%. Also, in the experiment on IL-2, the fold induction at 0.1 µM worked out at 0.9 and the fold induction at 1 µM worked out at 1. In the experiment with IL-1β, this compound registered an inhibition at 0.1 µM of 0% and an inhibition at 1 µM of 8%.

Turning to `Cc1cnc(Nc2ccc(OCCCNC(=O)NCc3ccc(COc4cc(F)cc5c4CN([C@H]4CCC(=O)NC4=O)C5=O)cc3)cc2)nc1Nc1cccc(S(=O)(=O)NC(C)(C)C)c1` [Compound 18], the inhibition at 1 µM with MV-4-11 cells turned out to be 99%; in the experiment with TNFα, 83%; in the experiment with IL-6, 49%; in the experiment on IL-1β it was 80%. Also, the inhibition at 10 µM in the experiment on MV-4-11 cells was determined as 99%; with TNFα, 89%; in the experiment with Molm-13 cells it was 99%; in the experiment on IL-6, 45%; in the experiment on IL-1β, 83%. Also, the fold induction at 10 µM with IL-2 turned out to be 3.3. Also, the fold induction at 1 µM in the experiment on IL-2 amounted to 3.2.

Take `O=C1CCC[C@H](N2Cc3cc(OCc4ccc(CN5CCOCC5)cc4)ccc3C2=O)C(=O)N1` [Compound 15]: the inhibition at 1 µM in the experiment with MV-4-11 cells was found to be 38%; in the experiment on TNFα, 65%; with IL-6, 10%; in the experiment on IL-1β, 59%. Further, the inhibition at 10 µM with MV-4-11 cells is 99%; in the experiment on TNFα, 87%; with IL-6, 50%; with IL-1β, 81%. Moreover, in the experiment on IL-2, the fold induction at 10 µM amounted to 2.1. Further, in the experiment with IL-2, the fold induction at 1 µM is 1.9.

In the experiment on MV-4-11 cells, `O=C1CCC[C@H](N2Cc3c(OCc4ccc(C5CCNCC5)cc4)cccc3C2=O)C(=O)N1` [Compound 4] came in with an inhibition at 1 µM of 0% and an inhibition at 10 µM of 0%. In the experiment on TNFα, this compound yielded an inhibition at 0.1 µM of 81% and an inhibition at 1 µM of 90%. In the experiment with IL-6, 0.1 µM produced 43% inhibition and the inhibition at 1 µM was determined as 67%. In the experiment with IL-2, the fold induction at 0.1 µM was determined as 1.3 and the fold induction at 1 µM was 2.3. In the experiment on IL-1β, this compound had an inhibition at 0.1 µM of 72% and an inhibition at 1 µM of 86%.

For the compound `O=C1CCC[C@H](N2C(=O)c3cccc(OCc4ccc(CN5CCOCC5)cc4)c3C2=O)C(=O)N1` [Compound 11], in the experiment with MV-4-11 cells, 1 µM produced 0% inhibition and the inhibition at 10 µM stood at 0%. The same compound yielded an inhibition at 0.1 µM with TNFα of 21%. In the experiment with IL-6, the inhibition at 0.1 µM is 12%. Besides, in the experiment with IL-2, the fold induction at 0.1 µM turned out to be 1.2 and the fold induction at 1 µM turned out to be 1.9. The compound further came in with an inhibition at 0.1 µM in the experiment with IL-1β of 21%.

Consider `Cc1cnc(Nc2ccc(OCCCNCC(=O)NCc3ccc(COc4cccc5c4CN([C@H]4CCC(=O)NC4=O)C5=O)cc3)cc2)nc1Nc1cccc(S(=O)(=O)NC(C)(C)C)c1` [Compound 24], for which the inhibition at 1 µM came to 44% in the experiment on MV-4-11 cells, 10% in the experiment on TNFα, 9% in the experiment on IL-6 and 7% in the experiment with IL-1β. In addition, the inhibition at 10 µM in the experiment on MV-4-11 cells amounted to 80%; with TNFα, 23%; in the experiment with IL-6 it was 1%; in the experiment on IL-1β, 23%. In addition, the fold induction at 10 µM in the experiment with IL-2 came to 1. Besides, the fold induction at 1 µM in the experiment with IL-2 was 1.

In the case of `O=C1CCC[C@H](N2Cc3c(OCc4ccc(CN5CCOCC5)cc4)cc(F)cc3C2=O)C(=O)N1` [Compound 7], in the experiment on MV-4-11 cells, the inhibition at 1 µM came out at 0%. The compound further yielded an inhibition at 10 µM in the experiment on MV-4-11 cells of 0%. Moreover, the results for the inhibition at 0.1 µM in the experiment with TNFα, in the experiment with IL-6 and in the experiment on IL-1β were 62%, 55% and 71%, respectively. Moreover, the fold induction at 0.1 µM in the experiment on IL-2 worked out at 1. The fold induction at 1 µM in the experiment on IL-2 came out at 1.1.

For the compound `O=C1COC[C@H](N2Cc3c(OCc4ccc(CN5CCOCC5)cc4)cccc3C2=O)C(=O)N1` [Compound 16], the inhibition at 1 µM in the experiment with MV-4-11 cells was 0%; with TNFα it was 27%; in the experiment with IL-6 it was 5%; with IL-1β, 24%. Further, the inhibition at 10 µM with MV-4-11 cells was 99%; in the experiment with TNFα, 75%; with IL-6, 78%; in the experiment on IL-1β it was 52%. Further, the fold induction at 10 µM with IL-2 was determined as 0.2. Besides, the fold induction at 1 µM in the experiment with IL-2 was found to be 0.7.

With `Cc1cnc(Nc2ccc(OCCCNCC(=O)NCc3ccc(COc4cc(F)cc5c4CN([C@H]4CCCC(=O)NC4=O)C5=O)cc3)cc2)nc1Nc1cccc(S(=O)(=O)NC(C)(C)C)c1` [Compound 21], the inhibition at 1 µM in the experiment with MV-4-11 cells turned out to be 0%; in the experiment with TNFα it was 20%; with IL-6 it was 8%; with IL-1β, 6%. The inhibition at 10 µM turned out to be 97% with MV-4-11 cells, 30% in the experiment with TNFα, 7% in the experiment with IL-6 and 11% in the experiment on IL-1β. Further, the fold induction at 10 µM in the experiment on IL-2 was 1. The fold induction at 1 µM with IL-2 stood at 0.9.

On to `N#Cc1ccc2c(c1OCc1ccc(CN3CCOCC3)cc1)CN([C@H]1CCCC(=O)NC1=O)C2=O` [Compound 19, 2-[(S)-2,7-Dioxo-3-azepanyl]-4-{[p-(morpholinomethyl)phenyl]methoxy}-1-oxo-5-isoindolinecarbonitrile], for which, in the experiment with MV-4-11 cells, at 1 µM the inhibition was 0% and at 10 µM the inhibition was 0%. In the experiment on TNFα, this compound showed an inhibition at 0.1 µM of 41% and an inhibition at 1 µM of 73%. In addition, in the experiment on IL-6, 0.1 µM produced 12% inhibition and 1 µM produced 43% inhibition. Also, in the experiment with IL-2, the fold induction at 0.1 µM is 1.5 and the fold induction at 1 µM was 2.4. Further, in the experiment on IL-1β, the inhibition at 0.1 µM was 22% and the inhibition at 1 µM worked out at 65%.
